Assay results from patent publication US12617783B2, “Heterocyclic GLP-1R agonists” (BIOMEA FUSION, INC., priority 2024, dated 2026).

Target: T1, human GLP-1R (Homo sapiens, UniProt P43220)
T1 construct: host or cells: HEK293
Assay: GLP-1R cAMP assay (Example B1a, HTRF, 30 min at room temperature)
Format: cell-based
Conditions: Table 1c, comparative compound; read-out: EC50
In short: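 Competitive HTRF read-out of cAMP after 30 min room-temperature stimulation, BETP absent, of human GLP-1R-HEK293 cells (1,000/well) in HEPES buffer with 500 μM IBMX and 0.1% BSA. Activation normalised to GLP-1(7-37) positive control. EC50 from 4-parameter non-linear regression.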

T1 sequence (P43220 24-463): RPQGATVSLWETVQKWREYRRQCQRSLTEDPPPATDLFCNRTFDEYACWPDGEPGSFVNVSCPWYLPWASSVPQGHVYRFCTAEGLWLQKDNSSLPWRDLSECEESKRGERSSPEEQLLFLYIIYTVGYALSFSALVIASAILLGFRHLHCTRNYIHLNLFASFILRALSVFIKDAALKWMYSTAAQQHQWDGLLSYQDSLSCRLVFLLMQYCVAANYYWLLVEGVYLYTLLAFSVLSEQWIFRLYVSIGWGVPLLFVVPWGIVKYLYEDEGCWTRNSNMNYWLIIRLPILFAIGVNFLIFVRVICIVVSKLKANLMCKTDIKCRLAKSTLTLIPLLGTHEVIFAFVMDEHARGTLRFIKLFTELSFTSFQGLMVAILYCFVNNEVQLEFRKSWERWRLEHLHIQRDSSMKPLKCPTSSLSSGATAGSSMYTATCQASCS

| EC50 [nM] | Compound |
| --- | --- |
| 11.4 | CCP(=O)(CC)c1ccc(-n2ccn(-c3c4c(nn3-c3cc(C)c(F)c(C)c3)CCN(C(=O)c3cc5cc(C6CCOCC6)ccc5n3[C@@]3(c5noc(=O)[nH]5)C[C@@H]3C)[C@H]4C)c2=O)cc1NC [Compound 405] |

Same assay, conditions: cAMP accumulation in HEK293 expressing human GLP-1R, no BETP, 30 min room temperature (Method B1a, compounds ID 1-609), Table 1; read-out: EC50

| Compound | EC50 [nM] |
| --- | --- |
| Cc1cc(-n2nc3c(c2-n2ccn(-c4ccc5c(cnn5C)c4F)c2=O)[C@H](C)N(C(=O)c2cc4cc([C@H]5CCOC6(CC6)C5)ccc4n2[C@@]2(c4noc(=O)[nH]4)C[C@@H]2C)CCC3)cc(C)c1F [Compound 606, 3-((1S,2S)-1-(2-((S)-3-(3-(4-fluoro-1-methyl-1H-indazol-5-yl)-2-oxo-2,3-dihydro-1H-imidazol-1-yl)-2-(4-fluoro-3,5-dimethylphenyl)-4-methyl-2,4,5,6,7,8-hexahydropyrazolo[4,3-c]azepine-5-carbonyl)-5-((S)-4-oxaspiro[2.5]octan-7-yl)-1H-indol-1-yl)-2-methylcyclopropyl)-1,2,4-oxadiazol-5 (4H)-one] | 80.4 |
| Cc1cc(-n2nc3c(c2-n2ccn(-c4ccc5c(cnn5C)c4F)c2=O)[C@H]2CC[C@@H]([C@@H]3F)N2C(=O)c2cc3cc([C@H]4CCOC(C)(C)C4)ccc3n2[C@@]2(c3noc(=O)[nH]3)C[C@@H]2C)cc(C)c1F [Compound 513, 3-[(1S,2S)-1-[5-[(4S)-2,2-dimethyltetrahydropyran-4-yl]-2-[(1R,7S,8S)-7-fluoro-4-(4-fluoro-3,5-dimethyl-phenyl)-3-[3-(4-fluoro-1-methyl-indazol-5-yl)-2-oxo-imidazol-1-yl]-4,5,11-triazatricyclo[6.2.1.02,6]undeca-2,5-diene-11-carbonyl]indol-1-yl]-2-methyl-cyclopropyl]-4H-1,2,4-oxadiazol-5-one] | ≥ 10000 |
| Cc1cc(-n2nc3c(c2-n2ccn(-c4ccc5cnncc5c4F)c2=O)CN(C(=O)c2cc4cc([C@H]5CCOC(C)(C)C5)ccc4n2[C@@]2(c4noc(=O)[nH]4)C[C@@H]2C)CCC3)cc(C)c1F [Compound 521, 3-[(1S,2S)-1-[5-[(4S)-2,2-dimethyltetrahydropyran-4-yl]-2-[2-(4-fluoro-3,5-dimethyl-phenyl)-3-[3-(5-fluorophthalazin-6-yl)-2-oxo-imidazol-1-yl]-4,6,7,8-tetrahydropyrazolo[4,3-c]azepine-5-carbonyl]indol-1-yl]-2-methyl-cyclopropyl]-4H-1,2,4-oxadiazol-5-one] | 197 |
| CCP(=O)(CC)c1ccc(-n2ccn(-c3c4c(nn3-c3cc(C)c(F)c(C)c3)CCCN(C(=O)c3cc5cc(C6CCOCC6)ccc5n3[C@@]3(c5noc(=O)[nH]5)C[C@@H]3C)C4)c2=O)cc1NC [Compound 506, 3-[(1S,2S)-1-[2-[3-[3-[4-diethylphosphoryl-3-(methylamino)phenyl]-2-oxo-imidazol-1-yl]-2-(4-fluoro-3,5-dimethyl-phenyl)-4,6,7,8-tetrahydropyrazolo[4,3-c]azepine-5-carbonyl]-5-tetrahydropyran-4-yl-indol-1-yl]-2-methyl-cyclopropyl]-4H-1,2,4-oxadiazol-5-one] | 757 |
| Cc1cc(-n2nc3c(c2-n2ccn(-c4ccc5ccncc5c4F)c2=O)[C@@H]2CCC[C@H](C3)N2S(=O)(=O)c2cc3cc([C@H]4CCOC(C)(C)C4)ccc3n2[C@@]2(c3noc(=O)[nH]3)C[C@@H]2C)cc(C)c1F [Compound 602, 3-[(1S,2S)-1-[5-[(4S)-2,2-dimethyltetrahydropyran-4-yl]-2-[[(1S,8R)-4-(4-fluoro-3,5-dimethyl-phenyl)-3-[3-(8-fluoro-7-isoquinolyl)-2-oxo-imidazol-1-yl]-4,5,12-triazatricyclo[6.3.1.02,6]dodeca-2,5-dien-12-yl]sulfonyl]indol-1-yl]-2-methyl-cyclopropyl]-4H-1,2,4-oxadiazol-5-one] | 1100 |

Second part, the molecule after the results:

| EC50 [nM] | Compound |
| --- | --- |
| 134 | Cc1cc(-n2nc3c(c2-n2ccn(-c4ccc5c(cnn5C)c4F)c2=O)[C@@H]2CC[C@H](C3)N2C(=O)c2cc3cc([C@H]4CCOC5(CCC5)C4)ccc3n2[C@@]2(c3noc(=O)[nH]3)C[C@@H]2C)cc(C)c1F [Compound 426, 3-((1S,2S)-1-(2-((4S,7R)-3-(3-(4-fluoro-1-methyl-1H-indazol-5-yl)-2-oxo-2,3-dihydro-1H-imidazol-1-yl)-2-(4-fluoro-3,5-dimethylphenyl)-2,4,5,6,7,8-hexahydro-4,7-epiminocyclohepta [c]pyrazole-9-carbonyl)-5-((S)-5-oxaspiro[3.5]nonan-8-yl)-1H-indol-1-yl)-2-methylcyclopropyl)-1,2,4-oxadiazol-5(4H)-one] |
| 402 | Cc1cc(-n2nc3c(c2-n2ccn(-c4ccc5c(cnn5C)c4C)c2=O)[C@@H]2COC[C@H](C3)N2C(=O)c2cc3cc([C@H]4CCOC(C)(C)C4)ccc3n2[C@@]2(c3noc(=O)[nH]3)C[C@@H]2C)cc(C)c1F [Compound 228, 3-[(1S,2S)-1-[2-[(1R,8S)-3-[3-(1,4-dimethylindazol-5-yl)-2-oxo-imidazol-1-yl]-4-(4-fluoro-3,5-dimethyl-phenyl)-10-oxa-4,5,12-triazatricyclo[6.3.1.02,6]dodeca-2,5-diene-12-carbonyl]-5-[(4S)-2,2-dimethyltetrahydropyran-4-yl]indol-1-yl]-2-methyl-cyclopropyl]-4H-1,2,4-oxadiazol-5-one] |
| 303 | Cc1cc(-n2nc3c(c2-n2ccn(-c4cccc(C(N)=O)c4F)c2=O)[C@@H]2CC[C@H](C3)N2C(=O)c2cc3cc([C@H]4CCOC(C)(C)C4)ccc3n2[C@@]2(c3noc(=O)[nH]3)C[C@@H]2C)cc(C)c1F [Compound 422, 3-[3-[(1S,8R)-11-[5-[(4S)-2,2-dimethyltetrahydropyran-4-yl]-1-[(1S,2S)-2-methyl-1-(5-oxo-4H-1,2,4-oxadiazol-3-yl)cyclopropyl]indole-2-carbonyl]-4-(4-fluoro-3,5-dimethyl-phenyl)-4,5,11-triazatricyclo[6.2.1.02,6]undeca-2,5-dien-3-yl]-2-oxo-imidazol-1-yl]-2-fluoro-benzamide] |
| 1620 | Cc1cc(-n2nc3c(c2-n2ccn(-c4ccc5c(cnn5C)c4F)c2=O)[C@@H]2CC[C@H](C3)N2C(=O)c2cc3cc([C@H]4CCOC5(CC5)C4)ccc3n2[C@@]2(c3noc(=O)[nH]3)C[C@H]2C)cc(C)c1F [Compound 542, 3-((1S,2R)-1-(2-((4S,7R)-3-(3-(4-fluoro-1-methyl-1H-indazol-5-yl)-2-oxo-2,3-dihydro-1H-imidazol-1-yl)-2-(4-fluoro-3,5-dimethylphenyl)-2,4,5,6,7,8-hexahydro-4,7-epiminocyclohepta [c]pyrazole-9-carbonyl)-5-((S)-4-oxaspiro[2.5]octan-7-yl)-1H-indol-1-yl)-2-methylcyclopropyl)-1,2,4-oxadiazol-5 (4H)-one] |
| 630 | Cc1cc(-n2nc3c(c2-n2ccn(-c4ccc5c(cnn5C)c4F)c2=O)C2CCC([C@@H]3F)N2C(=O)c2cc3cc([C@H]4CCOC(C)(C)C4)ccc3n2[C@@]2(c3noc(=O)[nH]3)C[C@@H]2C)cc(C)c1F (stereo partly drawn) [Compound 507, cis-3-((1S,2S)-1-(5-((S)-2,2-dimethyltetrahydro-2H-pyran-4-yl)-2-(8-fluoro-3-(3-(4-fluoro-1-methyl-1H-indazol-5-yl)-2-oxo-2,3-dihydro-1H-imidazol-1-yl)-2-(4-fluoro-3,5-dimethylphenyl)-2,4,5,6,7,8-hexahydro-4,7-epiminocyclohepta [c]pyrazole-9-carbonyl)-1H-indol-1-yl)-2-methylcyclopropyl)-1,2,4-oxadiazol-5 (4H)-one] |
| 551 | Cc1cc(-n2nc3c(c2-n2ccn(-c4ccc(C(N)=O)c(F)c4)c2=O)[C@@H]2CC[C@H](C3)N2C(=O)c2cc3cc([C@H]4CCOC(C)(C)C4)ccc3n2[C@@]2(c3noc(=O)[nH]3)C[C@@H]2C)cc(C)c1F [Compound 412, 4-[3-[(1S,8R)-11-[5-[(4S)-2,2-dimethyltetrahydropyran-4-yl]-1-[(1S,2S)-2-methyl-1-(5-oxo-4H-1,2,4-oxadiazol-3-yl)cyclopropyl]indole-2-carbonyl]-4-(4-fluoro-3,5-dimethyl-phenyl)-4,5,11-triazatricyclo[6.2.1.02,6]undeca-2,5-dien-3-yl]-2-oxo-imidazol-1-yl]-2-fluoro-benzamide] |
| > 10000 | Cc1cc(-n2nc3c(c2-n2ccn(-c4ccc5nn(CCN6CCOCC6)cc5c4F)c2=O)[C@@H]2CC[C@H](C3)N2C(=O)c2cc3cc([C@H]4CCOC(C)(C)C4)ccc3n2[C@@]2(c3noc(=O)[nH]3)C[C@@H]2C)cc(C)c1F [Compound 131, 3-[(1S,2S)-1-[5-[(4S)-2,2-dimethyltetrahydropyran-4-yl]-2-[(1S,8R)-4-(4-fluoro-3,5-dimethyl-phenyl)-3-[3-[4-fluoro-2-(2-morpholinoethyl)indazol-5-yl]-2-oxo-imidazol-1-yl]-4,5,11-triazatricyclo[6.2.1.02,6]undeca-2,5-diene-11-carbonyl]indol-1-yl]-2-methyl-cyclopropyl]-4H-1,2,4-oxadiazol-5-one] |
| 585 | Cc1cc(-n2nc3c(c2-n2ccn(-c4ccc5c(cnn5C)c4F)c2=O)[C@@H]2COC[C@H](C3)N2C(=O)c2cc3cc([C@@H]4CCOC5(CC5)C4)ccc3n2[C@@]2(c3noc(=O)[nH]3)C[C@@H]2C)cc(C)c1F [Compound 227, 3-((1S,2S)-1-(2-((4R,8S)-3-(3-(4-fluoro-1-methyl-1H-indazol-5-yl)-2-oxo-2,3-dihydro-1H-imidazol-1-yl)-2-(4-fluoro-3,5-dimethylphenyl)-2,4,5,7,8,9-hexahydro-4,8-epiminooxocino [5,4-c]pyrazole-10-carbonyl)-5-((R)-4-oxaspiro[2.5]octan-7-yl)-1H-indol-1-yl)-2-methylcyclopropyl)-1,2,4-oxadiazol-5 (4H)-one] |

Same assay, conditions: text to Table 1d, bridge atoms configured out of the plane or toward the reader

| Compound | potency |
| --- | --- |
| Cc1cc(-n2nc3c(c2-n2ccn(-c4ccc5c(cnn5C)c4F)c2=O)[C@H]2CC[C@@H]([C@@H]3F)N2C(=O)c2cc3cc([C@H]4CCOC(C)(C)C4)ccc3n2[C@@]2(c3noc(=O)[nH]3)C[C@@H]2C)cc(C)c1F [Compound 513, 3-[(1S,2S)-1-[5-[(4S)-2,2-dimethyltetrahydropyran-4-yl]-2-[(1R,7S,8S)-7-fluoro-4-(4-fluoro-3,5-dimethyl-phenyl)-3-[3-(4-fluoro-1-methyl-indazol-5-yl)-2-oxo-imidazol-1-yl]-4,5,11-triazatricyclo[6.2.1.02,6]undeca-2,5-diene-11-carbonyl]indol-1-yl]-2-methyl-cyclopropyl]-4H-1,2,4-oxadiazol-5-one] | little or no potency |
